Test results published in ChEMBL document CHEMBL1156829 (Proc Natl Acad Sci U S A, 2008).

How the values were obtained:
Plasmodium falciparum [1] = assay: NOVARTIS: Inhibition of Plasmodium falciparum 3D7 (drug-susceptible) proliferation in erythrocyte-based infection assay; assay type: functional, organism-based; conditions: Plasmodium falciparum, 3D7
Plasmodium falciparum [2] = assay: NOVARTIS: Inhibition of Plasmodium falciparum W2 (drug-resistant) proliferation in erythrocyte-based infection assay; assay type: functional, organism-based; conditions: Plasmodium falciparum, W2; read-out: EC50
[3] = NOVARTIS: Cytotoxicity against human hepatocellular carcinoma cell line (Huh7); assay type: toxicity, cell-based, Huh-7; conditions: Huh7 cells (hepatocellular carcinoma cell line)

SMILES	EC50 (Plasmodium falciparum [1]) [nM]	EC50 (Plasmodium falciparum [2]) [nM]	CC50 [3] [nM]
CCOc1ccc(S(=O)(=O)Oc2cccc3cccnc23)cc1	> 1690	> 1190	> 10000
O=C(CSc1oc(-c2ccc(Cl)cc2)nc1[P+](c1ccccc1)(c1ccccc1)c1ccccc1)c1ccccc1	851	> 1180	> 10000
COc1cc(CNCCCn2ccnc2)ccc1OCc1ccccc1	> 1250	> 1170	> 10000
CC(=O)N1CCOC1C(C)(C)C/C=C(\C)CCC=C(C)C (configuration not stated)	806	> 1690	> 14100
NC(Cc1ccccc1)C(=O)N1CCC(Nc2nsc3ccccc23)C1 (configuration not stated)	1110	1510	12700
O=C(COc1cccc(Br)c1)NN=Cc1ccccc1F	> 1250	> 1190	> 10000
CCCCCN(C(=O)c1ccc(Cl)cc1)C(CC)c1nc2ccccc2c(=O)n1-c1ccccc1OC (configuration not stated)	878	1050	> 8820
c1cncc(-c2cc(NCCCN3CCOCC3)nc(-c3ccncc3)n2)c1	1080	1210	> 10000
COC(=O)[C@@H]1C[C@@H](NC(=O)c2ccc(OC)cc2OC)CN1CC(c1ccccc1)c1ccccc1	590	1190	> 10000
CC(CCCC(C)(C)O)Nc1cncc(-c2ccc(C(N)=O)cc2)n1 (configuration not stated)	> 1250	> 1200	> 10000
O=C(Nc1ccc(Br)cn1)c1ccc(Oc2cc(Oc3cccc(Cl)c3)cc([N+](=O)[O-])c2)cc1	> 1250	> 1180	> 10000
CCOC(=O)NN=C1c2ccccc2-c2nc3nonc3nc21	1450	1180	> 10000
C[C@H](Nc1cncc(-c2cccc(OC(F)(F)F)c2)n1)c1ccccc1	> 264	1180	> 10000
COC(=O)N(C)C(C)(C)C(C)=NOC(=O)c1ccccc1	> 1620	> 1180	> 10000
CCOP(=O)(OCC)C(O)c1ccc(C)cc1 (configuration not stated)	> 1250	> 1180	> 10000
COc1ccc(C(=O)C(CCC(CNC(C)(C)C)C(=O)c2ccc(OC)cc2)CNC(C)(C)C)cc1 (configuration not stated)	1120	1190	> 10000
CC(C)n1nnnc1CN1CCN(c2ccccc2F)CC1	> 1480	> 1190	> 10000
COc1ccc(CCNc2nc(NCCCN(C)C)ncc2C(=O)NCc2ccccc2)cc1OC	605	> 1190	> 10000
O=C1CC(c2cccc([N+](=O)[O-])c2)c2cc3c(cc2N1)OCO3 (configuration not stated)	> 10200	> 11800	> 100000
COc1cc(/C=C(\C#N)c2nc3ccccc3[nH]2)ccc1OCc1ccccc1	728	1210	> 10000
O=C(Nc1ccc(-c2nc3cc(-c4nc5ccccc5o4)ccc3[nH]2)cc1)c1ccc([N+](=O)[O-])cc1	1050	1200	> 10000
CCN(CC)c1ccc(C2N(Cc3ccccc3)CCN2Cc2ccccc2)c(O)c1	2360	2820	23600
COC(F)(C(=O)Nc1c(C)n(C)n(-c2ccccc2)c1=O)C(F)(F)F (configuration not stated)	1550	> 1100	> 9060
COc1cc(NC(C)CCCN(Cc2ccccc2OC)C(=O)c2ccc(C)c([N+](=O)[O-])c2)c2ncccc2c1 (configuration not stated)	873	555	4640
COc1cc(NC(=O)C(F)(F)F)c(C(=O)c2ccc(C(F)(F)F)cc2)cc1OC	1140	> 1200	> 10000
CCn1c(-c2ccc(O)cc2)nn(CN2CCN(Cc3ccc4c(c3)OCO4)CC2)c1=S	> 1250	> 1200	> 10000
CCOc1ccccc1NC(=O)CN1CCN(C(=O)c2ccco2)CC1	5460	12000	> 100000

SMILES	EC50 (Plasmodium falciparum [1]) [nM]	EC50 (Plasmodium falciparum [2]) [nM]	CC50 [3] [nM]
O=C(Nc1cccc(Oc2ccccc2)c1)NC(CN1CCCC1)c1ccccc1 (configuration not stated)	704	1430	11800
O=C(C1CCC(Cn2c(=S)[nH]c3ccccc3c2=O)CC1)N1CC=C(c2ccccc2)CC1 (configuration not stated)	> 964	1200	> 10000
Cn1c(=O)c2c(ncn2CC(O)CN2CCCC2)n(C)c1=O (configuration not stated)	> 1250	> 1190	> 10000
CCN(CC)c1ccc(/C=C/C23NC(=O)CCN2c2ccc(C)cc2C3(C)C)cc1 (configuration not stated)	1620	1210	> 10100
N=C(NN=Cc1cccc([N+](=O)[O-])c1)SC1CC(=O)N(c2cc(Cl)ccc2Cl)C1=O (configuration not stated)	> 1250	> 1190	> 10000
CC1CCCCN1CCCNc1ncc(C(=O)NCCc2ccccc2)c(NCC2CCCCC2)n1 (configuration not stated)	602	1200	> 10000
CCCN[P+](CC(C)C)(NCCC)NCCC	211	398	3340
COc1ccc(-c2cncc3ccc(C(=O)NCc4ccncc4)nc23)cc1	> 1350	1190	> 10000
CC(C)Cc1ccc(/C=C/C(=O)NC2CC2)cc1	913	> 1200	> 10000
CCOC(=O)c1c(NC(=O)CSc2nnc(CNC(=O)c3cccc(C)c3)n2-c2cccc(C)c2)sc2c1CCC2	> 1600	> 1190	> 10000
Cn1c(=O)c2c(nc(N3CCN(C(=O)Nc4ccc(F)cc4F)CC3)n2C)n(C)c1=O	> 1250	1200	> 10000
CCCCCCOc1ccc(NC(=O)c2ccco2)cc1	1390	1200	> 10000
O=c1[nH]c2cc(Cl)c(Br)nc2[nH]1	> 1250	1180	> 10000
C=CCOC(=O)C1=C(C)N=C2SCCC(=O)N2C1c1ccc(OC(=O)c2ccco2)cc1 (configuration not stated)	> 12400	> 11900	> 100000
COc1ccccc1-n1c(=O)c2c3c(sc2n2c(C)nnc12)CCC3	> 1250	> 1190	> 10000
CC(=O)Nc1sc(C)c(C)c1N=Nc1ccc(S(=O)(=O)O)cc1	1150	> 1180	> 10000
CN1C2CCC1/C(=C\c1ccsc1)C(=O)/C2=C\c1ccsc1	> 1300	> 1190	> 10000
COC(=O)[C@@H]1C[C@@H](NC(=O)c2ccccc2F)CN1CC(c1ccccc1)c1ccccc1	1060	> 1180	> 10000
Clc1ccc2c(c1)c(-c1ccccc1)nc1nnnn12	> 1250	> 1180	> 10000
CC1(c2ccccc2)CC(c2ccccc2)=Nc2nonc2N1 (configuration not stated)	586	1170	> 10000
Clc1ccc(C2Nc3ccc4ccccc4c3C3C=CCC32)c(Cl)c1 (configuration not stated)	> 1250	> 1200	> 10000
Clc1cccc(C(Nc2cccnc2)(c2ccccc2)c2ccccc2)c1	618	1190	> 10000
CCN(CC)CCCC(C)Nc1c2ccc(Cl)cc2nc2ccc(OC)nc12 (configuration not stated)	744	746	> 6250
CCOc1ccc2[nH]c(=O)c(CN(Cc3ccccc3OC)C(C)=O)cc2c1	> 1740	> 1210	> 10000
COc1cc(CN(C)c2ccc3nc(N)nc(N)c3c2)cc(OC)c1OC	7.31	1190	> 10000
COc1ccccc1CNc1ncc(C(=O)NCCCN2CCCC2=O)c(NCCc2ccccc2)n1	214	1190	> 10000
COc1cccc(CNc2cc(C(=O)NCCNC(C)=O)cc(S(=O)(=O)N(C)C)c2)c1OC	> 431	> 1210	> 10000
